# Assays:
# barnyard grass [1] = assay: Test Example 3: herbicidal effect by foliage application, Wagner pot (Table 18, symbol H); type: in vivo, barnyard grass (Echinochloa crus-galli); details: amount of applied herbicide 320 g/ha
# Procedure, shortened: (§1)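 Plants were sown in alluvial soil held under 0.1–0.5 cm standing water and grown 14 days in a greenhouse at 25–30 °C. An emulsifiable formulation, water-diluted to the set dose, was then sprayed onto the foliage, and effects were scored three weeks later using previously defined criteria.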
# Chinese sprangletop = assay: Test Example 3: herbicidal effect by foliage application, Wagner pot (Table 18, symbol D); type: in vivo, chinese sprangletop (Leptochloa chinensis); details: amount of applied herbicide 320 g/ha
# Procedure, shortened: as §1
# rice flat sedge = assay: Test Example 3: herbicidal effect by foliage application, Wagner pot (Table 18, symbol E); type: in vivo, rice flat sedge (Cyperus iria); details: amount of applied herbicide 320 g/ha
# Procedure, shortened: as §1
# directly sowed rice = assay: Test Example 3: effect on crop by foliage application, Wagner pot (Table 18, symbol b); type: in vivo; details: amount of applied herbicide 320 g/ha
# Description: [Test Example 3] Herbicidal Effect Test by Foliage Application After alluvial soil was placed into 1/10000 are of Wagner pot, water was poured and mixed to form a submerged condition having a water depth of 0.1 cm to 0.5 cm. Seeds of barnyard grass, Chinese sprangletop, rice flat sedge, and rice were sowed and the pot was placed in a greenhouse at 25° C. to 30° C. for growth of the plants. After 14-day growth of the plants, the emulsion agent of the compound of the present invention prepared according to Formulation Example 2 was diluted with water so as to achieve a predetermined herbicide amount, and the diluted emulsion agent was uniformly applied to a foliage part with a small-sized spray. Three weeks after the herbicide application, the effect of the herbicide on each plant was evaluated according to the criteria of Test Example 1.
# southern crabgrass = assay: Test Example 4: herbicidal effect by soil treatment (Table 19, symbol F); type: in vivo, southern crabgrass (Digitaria ciliaris); details: amount of applied herbicide 320 g/ha
# Procedure, shortened: (§2)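 Herbicidal effect was rated 3 weeks after treatment, using the scoring criteria of an earlier test. The compound, formulated as an emulsion and diluted in water to a set herbicide amount, had been sprayed uniformly on soil over freshly sown seeds. Growth took place in a greenhouse at 25° C. to 30° C.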
# green foxtail = assay: Test Example 4: herbicidal effect by soil treatment (Table 19, symbol G); type: in vivo, green foxtail (Setaria viridis); details: amount of applied herbicide 320 g/ha
# Procedure, shortened: as §2
# barnyard grass [2] = assay: Test Example 4: herbicidal effect by soil treatment (Table 19, symbol H); type: in vivo, barnyard grass (Echinochloa crus-galli); details: amount of applied herbicide 320 g/ha
# Procedure, shortened: as §2
# wild oat = assay: Test Example 4: herbicidal effect by soil treatment (Table 19, symbol I); type: in vivo, wild oat (Avena fatua); details: amount of applied herbicide 320 g/ha
# Procedure, shortened: as §2
# blackgrass = assay: Test Example 4: herbicidal effect by soil treatment (Table 19, symbol J); type: in vivo, blackgrass (Alopecurus myosuroides); details: amount of applied herbicide 320 g/ha
# Procedure, shortened: as §2
# Italian ryegrass = assay: Test Example 4: herbicidal effect by soil treatment (Table 19, symbol K); type: in vivo, Italian ryegrass (Lolium multiflorum); details: amount of applied herbicide 320 g/ha
# Procedure, shortened: as §2
# windgrass = assay: Test Example 4: herbicidal effect by soil treatment (Table 19, symbol L); type: in vivo, windgrass (Apera spica-venti); details: amount of applied herbicide 320 g/ha
# Procedure, shortened: as §2
# velvetleaf = assay: Test Example 4: herbicidal effect by soil treatment (Table 19, symbol M); type: in vivo, velvetleaf (Abutilon theophrasti); details: amount of applied herbicide 320 g/ha
# Procedure, shortened: as §2
# redroot pigweed = assay: Test Example 4: herbicidal effect by soil treatment (Table 19, symbol N); type: in vivo, redroot pigweed (Amaranthus retroflexus); details: amount of applied herbicide 320 g/ha
# Procedure, shortened: as §2
# lambsquarters = assay: Test Example 4: herbicidal effect by soil treatment (Table 19, symbol O); type: in vivo, lambsquarters (Chenopodium album); details: amount of applied herbicide 320 g/ha
# Procedure, shortened: as §2
# corn = assay: Test Example 4: effect on crop by soil treatment (Table 19, symbol c); type: in vivo; details: amount of applied herbicide 320 g/ha
# Excerpt: (§3) [Test Example 4] Herbicidal Effect Test by Soil Treatment
# (§4) Sterilized diluvial soil was placed in a plastic box having a length of 21 cm, a width of 13 cm, and a depth of 7 cm. The seeds of each of southern crabgrass, green foxtail, barnyard grass, wild oat, blackgrass, Italian ryegrass, windgrass, velvetleaf, redroot pigweed, lambsquarters, chickweed, false cleavers, persian speedwell, corn, soybean, rice, wheat, beet, and rapeseed were sowed in a spot-like manner and covered with the soil having a thickness of about 1.5 cm. Subsequently, the emulsion agent of the compound of the present invention prepared according to Formulation Example 2 was diluted with water so as to achieve a predetermined herbicide amount, and the diluted emulsion agent was uniformly applied to the surface of the soil with a small-sized spray. The plastic box was placed in a greenhouse at 25° C. to 30° C. for growth of the plants. Three weeks after the herbicide application, the effect of the herbicide on each plant was evaluated according to the criteria of Test Example 1.
# soybean = assay: Test Example 4: effect on crop by soil treatment (Table 19, symbol d); type: in vivo; details: amount of applied herbicide 320 g/ha
# Excerpt: as §3, §4
# wheat = assay: Test Example 4: effect on crop by soil treatment (Table 19, symbol e); type: in vivo; details: amount of applied herbicide 320 g/ha
# Excerpt: as §3, §4
# beet = assay: Test Example 4: effect on crop by soil treatment (Table 19, symbol f); type: in vivo; details: amount of applied herbicide 320 g/ha
# Excerpt: as §3, §4
# rapeseed = assay: Test Example 4: effect on crop by soil treatment (Table 19, symbol g); type: in vivo; details: amount of applied herbicide 320 g/ha
# Excerpt: as §3, §4
structure (smiles),measurement,setting,value
"COc1ccccc1-c1sc2ccc(SC(F)(F)F)cc2c1-c1c(O)c(C)nn(C)c1=O [Compound No. 2-378, 5-hydroxy-4-(2-(2-methoxyphenyl)-5-((trifluoromethyl)thio)benzo[b]thiophen-3-yl)-2,6-di methylpyridazin-3(2H)-one]",herbicidal effect on H: barnyard grass,barnyard grass [1],5 (Herbicidal rate of 90% or more (almost completely withered))
same,herbicidal effect on D: Chinese sprangletop,Chinese sprangletop,5 (Herbicidal rate of 90% or more (almost completely withered))
same,herbicidal effect on E: rice flat sedge,rice flat sedge,3 (Herbicidal rate of 40% or more and less than 70%)
same,effect on crop b: directly sowed rice,directly sowed rice,0 (Herbicidal rate of 5% or less (almost no effect))
same,"herbicidal effect, F: southern crabgrass",southern crabgrass,0 (Herbicidal rate of 5% or less (almost no effect))
same,"herbicidal effect, G: green foxtail",green foxtail,0 (Herbicidal rate of 5% or less (almost no effect))
same,"herbicidal effect, H: barnyard grass",barnyard grass [2],0 (Herbicidal rate of 5% or less (almost no effect))
same,"herbicidal effect, I: wild oat",wild oat,0 (Herbicidal rate of 5% or less (almost no effect))
same,"herbicidal effect, J: blackgrass",blackgrass,0 (Herbicidal rate of 5% or less (almost no effect))
same,"herbicidal effect, K: Italian ryegrass",Italian ryegrass,0 (Herbicidal rate of 5% or less (almost no effect))
same,"herbicidal effect, L: windgrass",windgrass,0 (Herbicidal rate of 5% or less (almost no effect))
same,"herbicidal effect, M: velvetleaf",velvetleaf,0 (Herbicidal rate of 5% or less (almost no effect))
same,"herbicidal effect, N: redroot pigweed",redroot pigweed,4 (Herbicidal rate of 70% or more and less than 90%)
same,"herbicidal effect, O: lambsquarters",lambsquarters,2 (Herbicidal rate of 20% or more and less than 40%)
same,"effect on crop, c: corn",corn,0 (Herbicidal rate of 5% or less (almost no effect))
same,"effect on crop, d: soybean",soybean,0 (Herbicidal rate of 5% or less (almost no effect))
same,"effect on crop, e: wheat",wheat,0 (Herbicidal rate of 5% or less (almost no effect))
same,"effect on crop, f: beet",beet,0 (Herbicidal rate of 5% or less (almost no effect))
same,"effect on crop, g: rapeseed",rapeseed,0 (Herbicidal rate of 5% or less (almost no effect))
same,melting point,,183 to 186 °C
